Patent US6476022B1, “Oxathiepino[6,5-b]dihydropyridines, and related compositions and methods” (Ortho-McNeil Pharmaceutical, Inc., priority 1999, dated 2002)

The compounds below were run against T1, calcium channel (3H-nitrendipine binding, heart membranes) (Oryctolagus cuniculus, UniProt P15381) (assay: Assay for inhibition of nitrendipine binding (3H-nitrendipine, rabbit heart membranes)). Settings: 3H-nitrendipine 0.05-0.50 nM, 90 minutes at 4° C., compounds of Formula I (Table 1).
T1 construct: from tissue; host or cells: rabbit heart (crude membrane pellet)
T1 sequence (P15381 whole entry, other chains not shown): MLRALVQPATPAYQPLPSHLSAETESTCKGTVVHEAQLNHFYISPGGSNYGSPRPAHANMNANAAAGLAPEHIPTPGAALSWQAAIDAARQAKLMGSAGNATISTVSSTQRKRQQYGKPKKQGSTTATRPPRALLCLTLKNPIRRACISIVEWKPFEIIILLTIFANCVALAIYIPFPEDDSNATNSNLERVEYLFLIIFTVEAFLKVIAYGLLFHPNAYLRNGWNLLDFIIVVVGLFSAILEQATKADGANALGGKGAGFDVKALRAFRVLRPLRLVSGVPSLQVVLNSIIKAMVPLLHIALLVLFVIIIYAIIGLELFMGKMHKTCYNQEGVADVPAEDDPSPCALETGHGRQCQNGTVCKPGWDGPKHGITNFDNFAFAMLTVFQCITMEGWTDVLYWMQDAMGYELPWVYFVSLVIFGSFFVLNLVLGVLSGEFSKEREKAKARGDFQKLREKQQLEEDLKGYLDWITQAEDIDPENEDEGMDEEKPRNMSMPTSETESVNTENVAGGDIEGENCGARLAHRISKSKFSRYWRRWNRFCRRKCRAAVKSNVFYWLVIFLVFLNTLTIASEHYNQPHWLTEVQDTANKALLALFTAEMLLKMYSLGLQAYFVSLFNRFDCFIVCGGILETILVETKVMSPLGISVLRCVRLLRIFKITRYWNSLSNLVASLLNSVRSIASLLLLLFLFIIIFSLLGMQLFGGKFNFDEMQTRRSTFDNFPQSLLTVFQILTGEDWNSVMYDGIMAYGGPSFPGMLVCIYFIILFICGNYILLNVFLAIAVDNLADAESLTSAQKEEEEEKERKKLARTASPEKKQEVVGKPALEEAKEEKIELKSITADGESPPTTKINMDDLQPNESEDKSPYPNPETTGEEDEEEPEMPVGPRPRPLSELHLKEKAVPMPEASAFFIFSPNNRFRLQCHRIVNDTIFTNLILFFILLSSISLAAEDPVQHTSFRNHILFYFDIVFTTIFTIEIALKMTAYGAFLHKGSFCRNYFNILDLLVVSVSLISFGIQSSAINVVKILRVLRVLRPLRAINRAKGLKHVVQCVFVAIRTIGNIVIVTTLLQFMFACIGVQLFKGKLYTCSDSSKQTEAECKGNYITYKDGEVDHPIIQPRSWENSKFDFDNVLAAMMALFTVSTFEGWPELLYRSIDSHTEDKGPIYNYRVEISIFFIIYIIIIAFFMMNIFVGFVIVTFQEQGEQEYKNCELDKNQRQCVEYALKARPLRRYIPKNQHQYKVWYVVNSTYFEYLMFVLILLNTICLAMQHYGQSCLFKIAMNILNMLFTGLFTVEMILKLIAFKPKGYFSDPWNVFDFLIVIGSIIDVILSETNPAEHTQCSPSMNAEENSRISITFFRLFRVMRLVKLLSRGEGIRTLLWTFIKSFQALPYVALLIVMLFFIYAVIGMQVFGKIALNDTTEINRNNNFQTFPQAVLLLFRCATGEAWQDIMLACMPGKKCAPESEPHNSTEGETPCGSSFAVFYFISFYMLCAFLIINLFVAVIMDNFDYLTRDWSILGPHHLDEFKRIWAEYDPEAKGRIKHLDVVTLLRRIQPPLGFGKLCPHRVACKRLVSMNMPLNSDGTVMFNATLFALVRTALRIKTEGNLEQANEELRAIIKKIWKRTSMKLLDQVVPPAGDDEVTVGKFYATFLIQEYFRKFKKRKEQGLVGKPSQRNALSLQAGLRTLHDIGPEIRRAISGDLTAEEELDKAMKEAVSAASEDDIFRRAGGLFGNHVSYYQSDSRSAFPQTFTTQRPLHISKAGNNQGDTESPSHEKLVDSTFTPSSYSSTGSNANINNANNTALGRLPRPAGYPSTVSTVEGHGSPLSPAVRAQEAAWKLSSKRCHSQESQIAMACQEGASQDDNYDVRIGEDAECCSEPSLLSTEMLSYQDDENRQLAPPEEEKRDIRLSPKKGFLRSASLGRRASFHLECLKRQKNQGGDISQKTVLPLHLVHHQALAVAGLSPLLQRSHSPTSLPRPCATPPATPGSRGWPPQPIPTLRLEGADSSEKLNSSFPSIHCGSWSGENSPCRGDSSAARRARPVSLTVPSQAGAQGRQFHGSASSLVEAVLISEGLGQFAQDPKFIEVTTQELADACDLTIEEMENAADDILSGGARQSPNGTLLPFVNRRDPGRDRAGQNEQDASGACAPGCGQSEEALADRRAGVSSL
T1 sequence (P13806 27-960 partner limits assumed, other chains not shown): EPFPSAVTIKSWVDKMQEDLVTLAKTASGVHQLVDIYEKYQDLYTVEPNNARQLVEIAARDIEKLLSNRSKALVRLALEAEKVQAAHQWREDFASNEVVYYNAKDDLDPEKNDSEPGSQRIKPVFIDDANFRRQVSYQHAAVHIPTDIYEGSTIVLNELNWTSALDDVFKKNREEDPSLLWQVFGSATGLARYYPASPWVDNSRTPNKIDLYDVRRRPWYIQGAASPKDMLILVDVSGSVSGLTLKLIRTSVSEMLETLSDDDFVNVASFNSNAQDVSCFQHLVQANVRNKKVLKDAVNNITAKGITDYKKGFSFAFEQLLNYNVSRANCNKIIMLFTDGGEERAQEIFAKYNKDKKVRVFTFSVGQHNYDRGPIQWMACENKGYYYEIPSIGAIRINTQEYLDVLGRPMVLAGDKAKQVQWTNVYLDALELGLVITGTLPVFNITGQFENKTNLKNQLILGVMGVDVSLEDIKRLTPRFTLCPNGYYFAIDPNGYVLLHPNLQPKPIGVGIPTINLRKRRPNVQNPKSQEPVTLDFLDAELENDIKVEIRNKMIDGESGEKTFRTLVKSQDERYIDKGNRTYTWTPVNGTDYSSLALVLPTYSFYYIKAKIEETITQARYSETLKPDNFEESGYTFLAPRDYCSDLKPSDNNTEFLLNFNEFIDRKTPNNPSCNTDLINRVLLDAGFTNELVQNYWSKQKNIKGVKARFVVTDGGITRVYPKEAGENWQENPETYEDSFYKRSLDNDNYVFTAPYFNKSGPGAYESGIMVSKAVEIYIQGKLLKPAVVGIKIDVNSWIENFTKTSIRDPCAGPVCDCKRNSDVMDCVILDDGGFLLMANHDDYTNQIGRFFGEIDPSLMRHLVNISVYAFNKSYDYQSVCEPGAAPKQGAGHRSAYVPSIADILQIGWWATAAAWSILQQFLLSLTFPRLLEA
T1 sequence (P13806 961-1106 partner limits assumed, other chains not shown): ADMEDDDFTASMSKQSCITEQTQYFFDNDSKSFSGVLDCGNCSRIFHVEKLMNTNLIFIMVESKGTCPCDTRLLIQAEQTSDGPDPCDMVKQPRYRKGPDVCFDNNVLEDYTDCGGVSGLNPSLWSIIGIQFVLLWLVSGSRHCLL
Description: Female, New Zealand white rabbits (1-2 kg) are sacrificed by cervical dislocation, and the heart is immediately removed, cleaned and chopped into small pieces. The tissue is homogenized in 5×volume of 0.05M Hepes buffer, pH 7.4. The homogenate is centrifuged at 4000 g for 10 minutes, and the supernatant is re-centrifuged at 42,000 g for 90 minutes. The resulting membrane pellet is resuspended (0.7 ml/g weight) in 0.05M Hepes, pH 7.4 and stored at […] until used. Each tube of the binding assay contains ^3H-nitrendipine (0.05-0.50 nM), buffer, membranes (0.10 ml ), and test compound in a total volume of 1.0 ml . After 90 minutes at 4° C., the bound nitrendipine is separated from the unbound by filtration on Whatman GF/C filters. After rinsing, the filters are dried and counted in a liquid scintillation counter.
Non-specifically bound ^3H-nitrendipine (i.e., the amount bound in the presence of excess unlabelled nitrendipine) is subtracted from the total bound to obtain specifically-bound radiolabeled nitrendipine. The amount of specifically-bound nitrendipine in the presence of a test compound is compared to the amount bound in the absence of the compound. A percent displacement (or inhibition) can then be obtained.

Row | SMILES | IC50
1 | COC(=O)C1=C(C)NC2=C(C1c1ccccc1[N+](=O)[O-])S(=O)(=O)CCOC2 (stereo not drawn) [Compound 5, 5H-[1,4]oxathiepino[6,5-b]pyridine-8-carboxylic acid, 2,3,6,9-tetrahydro-7-methyl-9-(2-nitrophenyl), methyl ester, 1,1-dioxide] | 0.034 µM
2 | COC(=O)C1=C(C)NC2=C(C1c1cccc([N+](=O)[O-])c1)S(=O)(=O)CCOC2 (stereo not drawn) [Compound 4, 5H-[1,4]oxathiepino[6,5-b]pyridine-8-carboxylic acid, 2,3,6,9-tetrahydro-7-methyl-9-(3-nitrophenyl), methyl ester, 1,1-dioxide] | 0.046 µM
3 | COC(=O)C1=C(C)NC2=C(C1c1cccc(Cl)c1)S(=O)(=O)CCOC2 (stereo not drawn) [Compound 6, 5H-[1,4]oxathiepino[6,5-b]pyridine-8-carboxylic acid, 9-(3-chlorophenyl)-2,3,6,9-tetrahydro-7-methyl, methyl ester, 1,1-dioxide] | 0.021 µM
4 | COC(=O)C1=C(C)NC2=C(C1c1ccccc1Cl)S(=O)(=O)CCOC2 (stereo not drawn) [Compound 2, 5H-[1,4]oxathiepino[6,5-b]pyridine-8-carboxylic acid, 9-(2-chlorophenyl)-2,3,6,9-tetrahydro-7-methyl, methyl ester, 1,1-dioxide] | 0.012 µM
5 | CC1=C(C(=O)OCCN(C)Cc2ccccc2)C(c2cccc(Cl)c2)C2=C(COCCS2(=O)=O)N1 (stereo not drawn) [Compound 7, 5H-[1,4]oxathiepino[6,5-b]pyridine-8-carboxylic acid, 9-(3-chlorophenyl)-2,3,6,9-tetrahydro-7-methyl, 2-[methyl(phenylmethyl)amino]ethyl ester, 1,1-dioxide] | 0.013 µM
6 | CC1=C(C(=O)OCCN(C)Cc2ccccc2)C(c2ccccc2Cl)C2=C(COCCS2(=O)=O)N1 (stereo not drawn) [Compound 3, 5H-[1,4]oxathiepino[6,5-b]pyridine-8-carboxylic acid, 9-(2-chlorophenyl)-2,3,6,9-tetrahydro-7-methyl, 2-[methyl(phenylmethyl)amino]ethyl ester, 1,1-dioxide] | 0.129 µM
7 | CC1=C(C(=O)OCCN(C)Cc2ccccc2)C(c2cccc([N+](=O)[O-])c2)C2=C(COCCS2(=O)=O)N1 (stereo not drawn) [Compound 1, 5H-[1,4]oxathiepino[6,5-b]pyridine-8-carboxylic acid, 2,3,6,9-tetrahydro-7-methyl-9-(3-nitrophenyl), 2-[methyl(phenylmethyl)amino]ethyl ester, 1,1-dioxide] | 0.039 µM
8 | CC1=C(C(=O)OCCN(C)Cc2ccccc2)C(c2ccccc2[N+](=O)[O-])C2=C(COCCS2(=O)=O)N1 (stereo not drawn) [Compound 8, 5H-[1,4]oxathiepino[6,5-b]pyridine-8-carboxylic acid, 2,3,6,9-tetrahydro-7-methyl-9-(2-nitrophenyl), 2-[methyl(phenylmethyl)amino]ethyl ester, 1,1-dioxide] | 0.086 µM

Same assay, conditions: 3H-nitrendipine, compounds of Formula IIa (Table 2)

Row | SMILES | IC50
9 | CC1=C(C(=O)OCCO)C(c2c(F)cccc2Cl)C2=C(COCCS2(=O)=O)N1 (stereo not drawn) [Compound 20] | 4.36 µM
10 | CC(=O)OCCOC(=O)C1=C(C)NC2=C(C1c1c(F)cccc1Cl)S(=O)(=O)CCOC2 (stereo not drawn) [Compound 12, 5H-[1,4]oxathiepino[6,5-b]pyridine-8-carboxylic acid, 9-(2-chloro-6-fluorophenyl)-2,3,6,9-tetrahydro-7-methyl-, 2-(acetyloxy)ethyl ester, 1,1-dioxide] | 0.582 µM
11 | CC1=C(C(=O)OCCO)C(c2ccccc2Cl)C2=C(COCCS2(=O)=O)N1 (stereo not drawn) [Compound 15, 5H-[1,4]oxathiepino[6,5-b]pyridine-8-carboxylic acid, 9-(2-chlorophenyl)-2,3,6,9-tetrahydro-7-methyl-, 2-hydroxyethyl ester, 1,1-dioxide] | 20 µM
12 | CC1=C(C(=O)OCCOC(=O)C(C)C)C(c2ccccc2Cl)C2=C(COCCS2(=O)=O)N1 (stereo not drawn) [Compound 17, 5H-[1,4]oxathiepino[6,5-b]pyridine-8-carboxylic acid, 9-(2-chlorophenyl)-2,3,6,9-tetrahydro-7-methyl-, 2-(2-methyl-1-oxopropoxy)ethyl ester, 1,1-dioxide] | 0.036 µM
13 | CC1=C(C(=O)OCc2oc(=O)oc2C)C(c2cccc(Cl)c2Cl)C2=C(COCCS2(=O)=O)N1 (stereo not drawn) [Compound 19, 5H-[1,4]oxathiepino[6,5-b]pyridine-8-carboxylic acid, 9-(2,3-dichlorophenyl)-2,3,6,9-tetrahydro-7-methyl-, (5-methyl-2-oxo-1,3-dioxol4-yl)methyl ester, 1,1-dioxide] | 0.018 µM
14 | CC1=C(C(=O)OCCCO)C(c2ccccc2Cl)C2=C(COCCS2(=O)=O)N1 (stereo not drawn) [Compound 21] | 0.56 µM
15 | CC1=C(C(=O)OCCOC(=O)C2CCCCC2)C(c2c(F)cccc2Cl)C2=C(COCCS2(=O)=O)N1 (stereo not drawn) [Compound 11, 5H-[1,4]oxathiepino[6,5-b]pyridine-8-carboxylic acid, 9-(2-chloro-6-fluorophenyl)-2,3,6,9-tetrahydro-7-methyl-, 2-[(cyclohexylcarbonyl)oxy]ethyl ester, 1,1-dioxide] | 0.096 µM
16 | CC1=C(C(=O)OCCCOC(=O)c2ccccc2)C(c2ccccc2Cl)C2=C(COCCS2(=O)=O)N1 (stereo not drawn) [Compound 16, 5H-[1,4]oxathiepino[6,5-b]pyridine-8-carboxylic acid, 9-(2-chlorophenyl)-2,3,6,9-tetrahydro-7-methyl-, 3-(benzoyloxy)propyl ester, 1,1-dioxide] | 0.04 µM
17 | CC1=C(C(=O)OCc2oc(=O)oc2-c2ccccc2)C(c2cccc(Cl)c2Cl)C2=C(COCCS2(=O)=O)N1 (stereo not drawn) [Compound 18, 5H-[1,4]oxathiepino[6,5-b]pyridine-8-carboxylic acid, 9-(2,3-dichlorophenyl)-2,3,6,9-tetrahydro-7-methyl-, (2-oxo-5-phenyl-1,3-dioxol-4-yl)methyl ester, 1,1-dioxide] | 0.021 µM
18 | CC1=C(C(=O)OCCOC(=O)C(C)C)C(c2c(F)cccc2Cl)C2=C(COCCS2(=O)=O)N1 (stereo not drawn) [Compound 14, 5H-[1,4]oxathiepino[6,5-b]pyridine-8-carboxylic acid, 9-(2-chloro-6-fluorophenyl)-2,3,6,9-tetrahydro-7-methyl-, 2-(2-methyl-1-oxopropoxy)ethyl ester, 1,1-dioxide] | 0.06 µM
19 | CC1=C(C(=O)OCCOC(=O)C2CC2)C(c2c(F)cccc2Cl)C2=C(COCCS2(=O)=O)N1 (stereo not drawn) [Compound 13, 5H-[1,4]oxathiepino[6,5-b]pyridine-8-carboxylic acid, 9-(2-chloro-6-fluorophenyl)-2,3,6,9-tetrahydro-7-methyl-, 2-[(cyclopropylcarbonyl)oxy]ethyl ester, 1,1-dioxide] | 0.418 µM
20 | CC1=C(C(=O)OCCOC(=O)c2ccccc2)C(c2c(F)cccc2Cl)C2=C(COCCS2(=O)=O)N1 (stereo not drawn) [Compound 10, 5H-[1,4]oxathiepino[6,5-b]pyridine-8-carboxylic acid, 9-(2-chloro-6-fluorophenyl)-2,3,6,9-tetrahydro-7-methyl-, 2-(benzoyloxy)ethyl ester, 1,1-dioxide] | 0.017 µM

The compounds below were run on trachea (trachealis muscle tissue) (assay: Test for inhibition of calcium-dependent smooth muscle contraction (KCl-challenged tracheal rings)). Settings: Canis lupus familiaris, 10 min; dog tracheal rings, 50 mM KCl challenge, test compound added for 10 minutes.
Type: cell-based
Description: The trachea and the aorta from dogs sacrificed by excess KCl injection are stored overnight at 4° C. in oxygenated Krebs-Henseleit buffer. Tracheal rings, one cartilage segment wide (5-10 mm), are cut starting from the bronchial end. Rings of aorta tissue of the same width are also prepared. After cutting the cartilage, the trachealis muscle tissue and the aorta tissue are suspended in oxygenated Krebs-Henseleit buffer at 37° C. in a 25 ml tissue bath. After a 60-minute equilibration period, the tissues are challenged with 10 μM carbachol. After 5 minutes, the tissues are rinsed and allowed to rest 50 minutes. The tissues are then challenged with 50 mM KCl and, after 30 minutes, the contractions are quantitated. The tissues are then rinsed and re-equilibrated for 50 minutes. Test compounds are then added for 10 minutes, and the tissue is rechallenged with 50 mM KCl. After 30 minutes, the contraction is recorded and used to determine the % inhibition of control. The percent inhibition of smooth muscle contraction is calculated as follows from response data before and after drug treatment:
% inhibition=100−100×peak response after drug treatment/peak response before drug treatment

Row | SMILES | IC50
21 | CC1=C(C(=O)OCCN(C)Cc2ccccc2)C(c2ccccc2Cl)C2=C(COCCS2(=O)=O)N1 (stereo not drawn) [Compound 3, 5H-[1,4]oxathiepino[6,5-b]pyridine-8-carboxylic acid, 9-(2-chlorophenyl)-2,3,6,9-tetrahydro-7-methyl, 2-[methyl(phenylmethyl)amino]ethyl ester, 1,1-dioxide] | 0.055 µM
